The record followed here is BindingDB's records for doi:10.1158/0008-5472.CAN-07-0320 (University Hospital Basel, 2007).

Test [1] deals with Serine/threonine-protein kinase pim-2 (Homo sapiens, UniProt Q9P1W9). Put plainly: Kinase Inhibition Assay. The following applies: pH 7.5; 25 °C. Here is the method:
(§1) Phosphorylation reactions were monitored using a coupled-enzyme assay in which ADP production was coupled to NADH oxidation by pyruvate kinase and lactate dehydrogenase. The assay was carried out in a buffer containing phosphoenolpyruvate, NADH, pyruvate kinase, lactate dehydrogenase, and PIM kinase. The reaction was monitored at 340 nm at 25 deg C on a Spectramax spectrophotometer (Molecular Devices) and started by addition ATP after a 10-min preincubation at 25 deg C. A recognition peptide of the PIM1 substrate p21 ([…]) was used. DMSO-dissolved inhibitors were added at the preincubation period resulting in a 2% final DMSO. Kinetic analysis was done by nonlinear regression fitting using the program KaleidaGraph (Synergy Software).

Test [2] addresses Serine/threonine-protein kinase pim-1 (Homo sapiens, UniProt P11309). Briefly: Kinase Inhibition Assay. The conditions noted are these: pH 7.5; 25 °C. Here is the method: as §1

Structures are written as SMILES.

Sequence of Serine/threonine-protein kinase pim-2 (Q9P1W9 whole entry): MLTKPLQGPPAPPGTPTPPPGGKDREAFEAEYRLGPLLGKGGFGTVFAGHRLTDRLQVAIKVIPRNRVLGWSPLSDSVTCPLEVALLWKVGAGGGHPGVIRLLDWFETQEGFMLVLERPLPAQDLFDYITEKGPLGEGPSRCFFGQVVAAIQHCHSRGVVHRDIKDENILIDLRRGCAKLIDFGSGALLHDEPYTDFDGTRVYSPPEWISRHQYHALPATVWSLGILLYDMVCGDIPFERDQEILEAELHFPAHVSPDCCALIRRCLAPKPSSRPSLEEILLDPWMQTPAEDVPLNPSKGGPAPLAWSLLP
Sequence of Serine/threonine-protein kinase pim-1 (P11309 whole entry): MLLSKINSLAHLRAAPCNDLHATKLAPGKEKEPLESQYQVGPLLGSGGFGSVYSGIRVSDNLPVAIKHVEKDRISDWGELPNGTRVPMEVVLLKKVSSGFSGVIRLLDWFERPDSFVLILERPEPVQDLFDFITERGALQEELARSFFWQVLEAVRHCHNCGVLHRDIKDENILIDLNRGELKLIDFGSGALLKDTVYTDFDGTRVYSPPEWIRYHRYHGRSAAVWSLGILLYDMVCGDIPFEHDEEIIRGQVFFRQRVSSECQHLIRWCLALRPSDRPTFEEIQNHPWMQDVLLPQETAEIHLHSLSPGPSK

Turning to `CC(=O)c1cccc(-c2cnc3ccc(NCC4CC4)nn23)c1` [1-(3-{6-[(cyclopropylmethyl)amino]imidazo[1,2-a]pyridazin-3-yl}phenyl)ethan-1-one], the IC50 in test [1] stood at 1800 nM.

Take `Clc1cccc(-c2cnc3ccc(NC4CCOCC4)nn23)c1` [K00152]: the IC50 is 7100 nM in test [1] and 50 nM in test [2].

For the compound `CCC(CO)Nc1ccc2ncc(-c3ccc(F)c(Cl)c3)n2n1` (stereo not given) [K00486], the results for the IC50 in test [1] and in test [2] were 2500 nM and 40 nM, respectively.
